Assay [1] deals with T1, human cloned CHRM4 receptor (M4_CHO cells) (Homo sapiens, UniProt P08173).
T1 construct: expressed in transfected cells; host or cells: CHO-K1
T1 sequence (P08173 1-479): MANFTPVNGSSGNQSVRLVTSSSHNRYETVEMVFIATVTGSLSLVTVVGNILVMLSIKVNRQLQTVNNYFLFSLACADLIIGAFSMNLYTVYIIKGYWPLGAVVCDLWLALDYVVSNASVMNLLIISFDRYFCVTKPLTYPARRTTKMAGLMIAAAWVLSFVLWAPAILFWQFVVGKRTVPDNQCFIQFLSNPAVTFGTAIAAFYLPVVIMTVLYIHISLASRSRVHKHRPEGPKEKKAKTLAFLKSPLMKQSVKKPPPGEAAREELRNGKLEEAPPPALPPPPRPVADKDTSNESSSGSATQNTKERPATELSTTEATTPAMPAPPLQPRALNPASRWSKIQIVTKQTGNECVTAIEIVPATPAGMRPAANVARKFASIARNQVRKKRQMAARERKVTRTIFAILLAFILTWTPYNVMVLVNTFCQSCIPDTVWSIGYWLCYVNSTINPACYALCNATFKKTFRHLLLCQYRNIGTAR
The experiment in a line: CHRM4 Ca++ Flux Assay (agonist mode, FDSS 7000EX). The following applies: for Emax: Percent Activity, read-out: M4 FDSS PA; for EC50: geometric mean if tested more than once, read-out: M4 FDSS EC50. Type of assay: cell-based. The method, boiled down: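 M4_CHO cells loaded with a Ca++ dye for at least 1 h were held 60 min at room temperature in HEPES/probenecid buffer with 20 μM ATP. Ca++ flux after an 11-point compound dose, in triplicate and agonist mode, was recorded over 3 min. Four-parameter fits gave curves, with activity expressed relative to the Carbachol EC100.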

The target of assay [2] is T2, Cloned human M1 receptor (CHRM1) stably expressed in HEK293 cells (Homo sapiens, UniProt P11229).
T2 construct: expressed in transfected cells; host or cells: HEK293
T2 sequence (P11229 1-460): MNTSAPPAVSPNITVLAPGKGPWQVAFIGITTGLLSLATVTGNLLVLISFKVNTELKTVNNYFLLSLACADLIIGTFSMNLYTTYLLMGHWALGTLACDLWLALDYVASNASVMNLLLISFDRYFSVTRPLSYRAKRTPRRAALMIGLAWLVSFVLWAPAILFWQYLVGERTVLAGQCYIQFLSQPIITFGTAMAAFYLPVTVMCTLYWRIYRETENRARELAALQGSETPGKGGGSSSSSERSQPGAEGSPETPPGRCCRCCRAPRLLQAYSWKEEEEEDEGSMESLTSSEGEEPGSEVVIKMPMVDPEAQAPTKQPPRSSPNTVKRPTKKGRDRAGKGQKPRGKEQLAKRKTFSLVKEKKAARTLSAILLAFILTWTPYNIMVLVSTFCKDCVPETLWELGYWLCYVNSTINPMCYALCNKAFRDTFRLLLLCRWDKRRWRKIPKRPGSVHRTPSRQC
The experiment in a line: CHRM1 Ca++ Flux Assay (agonist mode, FDSS 7000EX). As to conditions: for Emax: HEK293, Percent Activity, read-out: M1 FDSS PA; for EC50: geometric mean if tested more than once. Type of assay: cell-based. The procedure, abridged: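 Compounds tested as agonists at 11 concentrations in triplicate, with calcium traces captured over 3 minutes. Cells were HEK293 with stable human CHRM1 expression, plated overnight at 25K/well and loaded with calcium dye. Responses normalized to carbachol EC100 and fitted by four-parameter nonlinear regression.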

From US12122761B2, “2-azaspiro[3.4]octane derivatives as M4 agonists” (NOVARTIS AG, priority 2019, dated 2024) come the findings set out here.

As for `O=C(C1COC1)N1CC2(CC[C@@H](N3CCC(c4ccccc4OC4CCCC4)CC3)C2)C1` [Example 7G, (R)-(6-(4-(2-(cyclopentyloxy)phenyl)piperidin-1-yl)-2-azaspiro[3.4]octan-2-yl)(oxetan-3-yl)methanone], in assay [1], the Emax stood at 61% and the EC50 – broadly, the concentration that produces a half-maximal response – was 9 nM. Besides, in assay [2], the Emax worked out at 65% and the 50% effective concentration (EC50) was found to be 37 nM.
On to `O=C(C1COC1)N1CC2(CC[C@@H](N3CCC(c4ccccc4OCCC(F)(F)F)CC3)C2)C1` [Example 7GG, (R)-oxetan-3-yl(6-(4-(2-(3,3,3-trifluoropropoxy)phenyl)piperidin-1-yl)-2-azaspiro[3.4]octan-2-yl)methanone], for which the Emax is 48% in assay [1] and 91% in assay [2]. The concentration giving a half-maximal response (EC50) in assay [1] was determined as 7 nM; in assay [2], 39 nM.
For the molecule `O=C(C1COC1)N1CC2(CC[C@@H](N3CCC(c4ccccc4OC4CCC4)CC3)C2)C1` [Example 7H, (R)-(6-(4-(2-cyclobutoxyphenyl)piperidin-1-yl)-2-azaspiro[3.4]octan-2-yl)(oxetan-3-yl)methanone], the Emax in assay [1] turned out to be 70%; in assay [2], 71%. Also, the EC50 in assay [1] came to 4 nM; in assay [2], 9 nM.
In the case of `COC(C)(C)COc1ccccc1C1CCN([C@@H]2CCC3(C2)CN(C(=O)C2COC2)C3)CC1` [Example 7HH, (R)-(6-(4-(2-(2-methoxy-2-methylpropoxy)phenyl)piperidin-1-yl)-2-azaspiro[3.4]octan-2-yl)(oxetan-3-yl)methanone], the Emax in assay [1] turned out to be 50%; in assay [2], 82%. Moreover, the half-maximal effective concentration (EC50) in assay [1] turned out to be 19 nM; in assay [2], 159 nM.
In the case of `O=C(C1COC1)N1CC2(CC[C@@H](N3CCC(c4ccccc4OCC4CC4)CC3)C2)C1` [Example 7I, (R)-(6-(4-(2-(cyclopropylmethoxy)phenyl)piperidin-1-yl)-2-azaspiro[3.4]octan-2-yl)(oxetan-3-yl)methanone], in assay [1], the Emax was determined as 55% and the EC50 turned out to be 7 nM. Further, in assay [2], the Emax amounted to 86% and the concentration giving a half-maximal response (EC50) worked out at 15 nM.
The like results for `O=C(C1COC1)N1CC2(CC[C@@H](N3CCC(c4ccccc4OCC4(C(F)(F)F)CC4)CC3)C2)C1` [Example 7II, (R)-oxetan-3-yl(6-(4-(2-((1-(trifluoromethyl)cyclopropyl)methoxy)phenyl)piperidin-1-yl)-2-azaspiro[3.4]octan-2-yl)methanone] were, in that order, 50%, 9 nM, 89% and 103 nM.
For the molecule `O=C(C1COC1)N1CC2(CC[C@@H](N3CCC(c4ccccc4OCC(F)F)CC3)C2)C1` [Example 7JJ, (R)-(6-(4-(2-(2,2-difluoroethoxy)phenyl)piperidin-1-yl)-2-azaspiro[3.4]octan-2-yl)(oxetan-3-yl)methanone], in assay [1], the Emax came to 49% and the EC50 worked out at 2 nM. In assay [2], the Emax was 87% and the EC50 stood at 12 nM.
Take `CC(C)Oc1ccccc1C1CCN([C@@H]2CCC3(C2)CN(C(=O)C2COC2)C3)CC1` [Example 7K, (R)-(6-(4-(2-isopropoxyphenyl)piperidin-1-yl)-2-azaspiro[3.4]octan-2-yl)(oxetan-3-yl)methanone]: the results for the Emax in assay [1] and in assay [2] were 76% and 72%, respectively. For the same molecule, the EC50 amounted to 9 nM in assay [1] and 24 nM in assay [2].
As for `O=C(C1COC1)N1CC2(CC[C@@H](N3CCC(c4ccccc4OCCC4COC4)CC3)C2)C1` [Example 7KK, (R)-oxetan-3-yl(6-(4-(2-(2-(oxetan-3-yl)ethoxy)phenyl)piperidin-1-yl)-2-azaspiro[3.4]octan-2-yl)methanone], the Emax stood at 47% in assay [1] and 80% in assay [2]. In addition, the EC50 stood at 2 nM in assay [1] and 11 nM in assay [2].
With `CC(C)(O)COc1ccccc1C1CCN([C@@H]2CCC3(C2)CN(C(=O)C2COC2)C3)CC1` [Example 7L, (R)-(6-(4-(2-(2-hydroxy-2-methylpropoxy)phenyl)piperidin-1-yl)-2-azaspiro[3.4]octan-2-yl)(oxetan-3-yl)methanone], in assay [1], the Emax came out at 58% and the EC50 is 20 nM. In assay [2], the Emax is 85% and it took 324 nM to reach a half-maximal effect (EC50).
As to `O=C(C1COC1)N1CC2(CC[C@@H](N3CCC(c4ccccc4OC(F)(F)F)CC3)C2)C1` [Example 12A, (R)-oxetan-3-yl(6-(4-(2-(trifluoromethoxy)phenyl)piperidin-1-yl)-2-azaspiro[3.4]octan-2-yl)methanone], in assay [1], the Emax turned out to be 73% and the EC50 was 2 nM. Besides, in assay [2], the Emax amounted to 79% and the EC50 came out at 8 nM.
